# Reference: paper PMC13144739, “Global analysis of cancer cell responses to USP9X inhibition” (The EMBO Journal, 2026)
# Key:
# USP24 = tested on: T1, USP24; assay: DUB IP-MS in MCF-7 cell lysates, USP24; assay type: biochemical, human; details: 50 µM
# T1 construct: endogenous in cells; host or cells: MCF-7 cell lysate
# Method: MCF-7 cells have been profiled for active DUBs previously (Pinto-Fernández et al, [2019]). Lysates were generated as described by others (Turnbull et al, [2017]) using 30 s freeze-thaw cycles (thrice) in lysis buffer (50 mM Tris [pH 7.4], 5 mM MgCl2 × 6 H2O, 0.5 mM EDTA [pH 8.0], 250 mM sucrose and 1 mM DTT) at pH 7.5. […] A pre-treatment of cell lysates with 0.5 µg Ub-VS was included for a baseline DUB response to the Ub-VS probe. 0.1 µg 3X-FLAG-Ub-VS probe was added to samples and incubated for 5 min at 37 °C. […] Samples were washed thrice with lysis buffer and eluted from the resin with lysis buffer supplemented with 1% (w/v) SDS following a 10 min incubation. Two consecutive elutions were pooled, and samples were stored at −80 °C until processing.
# DNA was hydrolysed with the addition of 2 µL neat TFA, and lysates were neutralised to pH 8.5 by the addition of 1 M Tris-HCl as previously described (Dagley et al, [2019]). Protein concentration was determined using Pierce™ BCA Protein Assay Kit (Thermo Fisher Scientific) following the manufacturer’s instructions. For DUB IP-MS, samples were processed using S-Trap spin columns (Profiti) by following the manufacturer’s instructions. […]
# USP9X catalytic domain = molecular target: T2, USP9X catalytic domain (Homo sapiens, UniProt Q93008); assay: HDX-MS; assay type: binding; details: 6 s deuterium exchange; 80 µM WEHI-092 or 30 µM FT709
# T2 construct: His/SUMO (pOPIN-S vector) (N, cleaved yes); made in house; host or cells: E. coli BL21
# T2 sequence (Q93008 1551-1970): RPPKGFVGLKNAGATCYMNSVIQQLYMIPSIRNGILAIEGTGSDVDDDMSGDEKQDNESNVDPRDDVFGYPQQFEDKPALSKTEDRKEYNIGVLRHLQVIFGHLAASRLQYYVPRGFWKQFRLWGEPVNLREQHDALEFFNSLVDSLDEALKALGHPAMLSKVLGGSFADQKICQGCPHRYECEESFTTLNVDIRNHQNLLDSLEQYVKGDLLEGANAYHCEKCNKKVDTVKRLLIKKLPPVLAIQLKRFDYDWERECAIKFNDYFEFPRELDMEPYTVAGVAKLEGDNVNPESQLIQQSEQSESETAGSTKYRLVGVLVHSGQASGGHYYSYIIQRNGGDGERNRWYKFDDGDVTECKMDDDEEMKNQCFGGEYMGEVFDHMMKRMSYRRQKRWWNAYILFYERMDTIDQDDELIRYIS
# Method: Deuterium labelling of USP9X catalytic domain was performed as described previously (Asadollahi et al, [2023]) at 20 °C for periods of 0, 6, 60, 6000 s using a PAL Dual Head HDX Automation manager (Trajan/LEAP) controlled by the ChronosHDX software. […] Quenching was performed by adding 50 µL of the protein mix to 50 µL of quench buffer (50 mM potassium phosphate buffer [pH 2.3], 4 M guanidine hydrochloride and 0.1% [v/v] n-dodecylphosphocholine) at 1 °C. […] To further reduce peptide carryover, n-octyl-β-d-glucopyranoside at 1% (w/w) was added to the pepsin column wash solution (1.5 M guanidine hydrochloride, 4% [v/v] acetonitrile [ACN], 0.8% [v/v] FA). […] For MS, an ion mobility equipped SYNAPT G2-Si mass spectrometer (Waters) was used. Instrument settings were: 3.0 KV capillary and 40 V sampling cone with source and desolvation temperatures of 100 °C and 40 °C, respectively. The desolvation and cone gas flow were at 80 L/h and 100 L/h, respectively. High-energy ramp trap collision energy was from 20 to 40 V. All mass spectra were acquired using a 0.4 s scan time with continuous lock mass (Leu-Enk, 556.2771 m/z) for mass accuracy correction. […] The deuterium uptake values were calculated for each peptide using DynamX 3.0 (Waters). […]
# MOLT-4 cells = assay: NCI-60 cancer cell panel, MOLT-4; assay type: cell-based, human; details: 10 µM, 3 days
# Method: Inhibitors were tested at 10 µM. Data shown is the mean of two technical replicates and is shown relative to the no-drug control, and relative to the time zero number of cells.
# MDA-MB-468 cells = assay: Colony formation assay, MDA-MB-468; assay type: cell-based, human; details: 10 µM, 7–12 days
# Method: (§1) Cells were seeded at low density (200–4000 cells per well) after initial optimisation in a six-well tissue culture-treated plate (Falcon). Twenty-four hours post seeding, media was replaced, and the inhibitor was added. Cells were left to grow into colonies between 7 and 12 days, depending on the cell line. For analysis, the media was removed, and the cells were fixed with 10% (w/v) formalin for 10 min. Colonies were stained with crystal violet (Sigma-Aldrich, 0.5% [w/v] in 20% [v/v] MeOH) for 10 min and washed thrice with distilled H2O. Plates were imaged using the ChemiDoc imaging system (Bio-Rad) and analysed using the ImageJ ColonyArea plugin as described previously (Guzmán et al, [2014]).
# HUVEC = assay: Colony formation assay, HUVEC; assay type: cell-based, human; details: 10 µM, 7–12 days
# Method: as §1
# MDA-MB-231 cells = assay: Lattice light sheet imaging of mitosis, MDA-MB-231; assay type: cell-based, human; details: 15 µM
# Method: (§2) MDA-MB-231, MiaPaca2, HMEC-1, SK-MEL-2 and UO-31 cells were seeded at 2–15 × 10^4 cells/mL in 8-well glass µ-slides (ibidi). […] SPY650-Tubulin, SPY555-DNA (both Spirochrome, Inc.), and Annexin V FITC (Sigma-Aldrich) were added at a final concentration of 1 in 1000. Cells were left to grow for 24 h before time-lapse live-cell data were acquired using a Lattice Light Sheet 7 (Zeiss). […] Aberration correction was set to a value of 170 to minimise aberrations as determined by imaging the Point Spread Function using 100 nm fluorescent microspheres. Data were collected with a frame time of 10 ms and a z step of 0.4 μm with 834 frames per 290 μm by 290 μm. Individual regions were imaged in parallel across six wells of the eight-well chamber slide. Data are presented as Maximum Intensity Projections (MIPs), and these MIPs were used for all downstream analysis. Tile regions were imaged for 24 h with 10 min intervals at 37 °C, 5% CO2. Analysis was performed using the MIPs of the different full fields of cells over the 24–48 h time period. Mitosis and mitosis arrest were classified through a combination of automated image analysis and manual validation. […] Small erroneous detected spots were further removed through a manually adjusted size filter. […] The mean intensity of all tracks was then measured to determine mitosis and mitosis arrest. […]
# HMEC-1 cells = assay: Lattice light sheet imaging of mitosis, HMEC-1; assay type: cell-based, human; details: 15 µM, imaged 24-48 h
# Method: as §2
# UO-31 cells = assay: Lattice light sheet imaging, UO-31; assay type: cell-based, human; details: 15 µM, imaged 24-48 h
# Method: as §2
smiles,measurement,setting,value
Cc1[nH]c2ccc(C(=O)N3CCN(S(=O)(=O)c4ccc5c(c4)OCCO5)CC3)cc2c1C [WEHI-092],inhibition of USP24 in cell lysates (DUB IP-MS),USP24,not inhibited
same,changes in hydrogen-deuterium uptake upon compound binding,USP9X catalytic domain,protection of five overlapping peptides that included residues 1757-1762
same,"cell growth, MOLT-4",MOLT-4 cells,stalling cell growth completely
same,"clonogenic potential, MDA-MB-468",MDA-MB-468 cells,strong decrease in proliferative capacity
same,"clonogenic potential, HUVEC",HUVEC,limited or no effects
same,"apoptosis on metaphase arrest (Annexin V uptake), MDA-MB-231",MDA-MB-231 cells,did not trigger apoptosis
same,"cell division phenotype, MDA-MB-231",MDA-MB-231 cells; imaged 24-48 h,significant defects in cell division
same,"cell division phenotype, HMEC-1",HMEC-1 cells,proceeded through mitosis normally
same,"arrested mitosis phenotype, UO-31",UO-31 cells,did not display the arrested mitosis phenotype
